Consider one molecule from paper PMC12817894, “Two solutions for efficient light-harvesting in phototrophic Gemmatimonadota” (mSystems, 2025).

This experiment concerns the target T1, RC (reaction center) of the RC-dLH complex, L and M subunits (Gemmatimonas groenlandica, UniProt A0A6M4ILR2+A0A6M4IPC7).
T1 construct: gene HKW67_08800; native reaction center within the RC-dLH complex purified from Gem. groenlandica cells, DDM-solubilized; RC-U not detected; with Photosynthetic reaction center cytochrome c subunit; Photosynthetic reaction center H subunit, transmembrane part; Photosynthetic reaction center H subunit, cytoplasmic part; Reaction center subunit S
Briefly: cryo-EM structure ([…] Å). Format: binding. Conditions: modeled ligand; placement in RC L/M from known biology.

T1 sequence (A0A6M4IPC7 1-274): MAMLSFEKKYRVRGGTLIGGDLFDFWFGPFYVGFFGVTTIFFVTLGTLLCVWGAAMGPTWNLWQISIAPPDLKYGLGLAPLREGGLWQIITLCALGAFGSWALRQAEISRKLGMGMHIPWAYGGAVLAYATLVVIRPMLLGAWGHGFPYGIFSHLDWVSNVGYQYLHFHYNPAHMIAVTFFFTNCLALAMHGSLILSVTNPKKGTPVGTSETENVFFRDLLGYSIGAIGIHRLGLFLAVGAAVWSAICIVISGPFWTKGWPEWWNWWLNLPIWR
T1 sequence (A0A6M4ILR2 1-392): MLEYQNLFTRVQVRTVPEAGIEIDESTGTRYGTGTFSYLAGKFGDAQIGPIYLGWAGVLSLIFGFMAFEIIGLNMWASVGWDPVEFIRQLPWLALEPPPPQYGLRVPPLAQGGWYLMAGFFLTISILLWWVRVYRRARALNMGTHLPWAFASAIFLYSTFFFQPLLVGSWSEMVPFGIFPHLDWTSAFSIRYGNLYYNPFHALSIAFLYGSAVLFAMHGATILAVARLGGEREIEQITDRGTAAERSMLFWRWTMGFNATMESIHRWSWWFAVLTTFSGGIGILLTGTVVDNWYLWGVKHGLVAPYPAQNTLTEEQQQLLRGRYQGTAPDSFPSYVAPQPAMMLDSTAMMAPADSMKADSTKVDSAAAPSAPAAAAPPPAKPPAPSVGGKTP

Turning to `CC[C@H]1c2cc3[nH]c4c(c3C)C(=O)[C@H](C(=O)OC)c4c3nc(cc4[nH]c(cc(n2)[C@@H]1C)c(C(C)=O)c4C)[C@@H](C)[C@@H]3CCC(=O)OC/C=C(\C)CCC[C@H](C)CCC[C@H](C)CCCC(C)C` [bacteriopheophytin], the “cryo-EM structure (2.3 Å)” value is “bacteriochlorophyll, bacteriopheophytin, gemmatoxanthin, dodecyl-maltoside, phosphoethanolamine, heme, water, cardiolipin, menaquinone, and spirilloxanthin”.
